Each structure is given as a SMILES string.

This assay concerns the target T1, cGMP-PDE prepared from the swine aeorta (Sus scrofa, UniProt A0A287B475).
T1 construct: The swine aeorta was sliced; from tissue; host or cells: swine aorta, 100000×g supernatant, DEAE-Toyopearl 650S fraction
The assay can be described thus: Enzyme inhibiting action with the use of cGMP-PDE prepared from the swine aorta. The following applies: CaM-independent cGMP-PDE, 1 mM EGTA, 1 μM cGMP substrate, DMSO 4% or below. The class given is biochemical. How it is done: Enzyme inhibiting action with the use of cGMP-PDE prepared from the swine aeorta
The enzymatic activity of the cGMP-PDE prepared from the swine aeorta was determined according to the method of Thompson et al. ^(1). The enzymatic activity thereof was determined in the presence of 1 mM EGTA by the use of 1 μM cGMP as a substrate. The compound of the present invention was dissolved in DMSO, added to the reaction liquid and examined for the inhibitory activity. The final concentration of DMSO in the reaction liquid was adjusted to 4% or below. (1) Thompson, W. J. and Strada, S. J., Cyclic Nucleotide Phosphodiesterase (PDE), in Methods of Enzymatic Analysis, vol 4, p.127-234, 1984.
The swine aeorta was sliced, followed by the addition of 10 times by volume as much Buffer A (20 mM Tris/HCl, 2 mM Mg acetate, 1 mM Dithiothreitol, 5 mM EDTA, 1400 TIU/liter aprotinin, 10 mg/liter leupeptin, 1 mM benzamidine, 0.2 mM PMSF, pH 7.5). The obtained mixture was homogenized and the homogenate was centrifuged at 100000×g for one hour. The obtained supernatant was supplied a DEAE-Toyopearl 650S (Tosoh, Tokyo, Japan) column. After the column was washed with Buffer B (50 mM Tris/HCl, 0.1 mM EGTA, 2 mM Mg acetate, 1 mM Dithiothreitol, 0.2 mM PMSF, pH 7.5), gradient elution with 0.05 to 0.4M NaCl was conducted. Thus, CaM-independent cGMP-PDE fractions were obtained.
With `COc1ccc(CNc2ncnc3c(OC)c(OC)c(OC)cc23)cc1` [Example 7, 4-(4-Methoxybenzyl)amino-6,7,8-trimethoxyquinazoline], 1000 nM corresponded to half-maximal inhibition (IC50).
With `COc1cc2c(NCc3ccc(Cl)c(Cl)c3)ncnc2c(OC)c1OC` [Example 19, 4-(3,4-Dichlorobenzyl)amino-6,7,8-trimethoxyquinazoline], the 50% inhibitory concentration (IC50) (commonly the concentration that gives 50% inhibition) was found to be 390 nM.
The figure for `COc1ccc(CNc2ncnc3c(OC)c(OC)c(OC)cc23)cc1F` [Example 22, 4-(3-Fluoro-4-methoxybenzyl)amino-6,7,8-trimethoxyquinazoline] is 360 nM; for `COc1cc2c(NCc3ccc4c(c3)OCCO4)ncnc2c(OC)c1OC` [Example 25, 4-(4-Ethylenedioxybenzyl)amino-6,7,8-trimethoxyquinazoline] it is 780 nM; for `COc1cc2c(NCc3cc4c(cc3Cl)OCO4)ncnc2c(OC)c1OC` [Example 33, 4-(2-Chloro-4,5-methylenedioxybenzyl)amino-6,7,8-trimethoxyquinazoline] it is 370 nM.
For the molecule `COc1cc2c(NC(C)c3ccc4c(c3)OCO4)ncnc2c(OC)c1OC` (stereo not drawn) [Example 38, 4-(α-Methyl-3,4-methylenedioxybenzyl)amino-6,7,8-trimethoxyquinazolin], the half-maximal inhibitory concentration (IC50) turned out to be 420 nM.
Turning to `CCN(Cc1ccc2c(c1)OCO2)c1ncnc2c(OC)c(OC)c(OC)cc12` [Example 40], the concentration for half-maximal inhibition (IC50) turned out to be 650 nM.
Consider `CCOC(=O)CN(Cc1ccc2c(c1)OCO2)c1ncnc2c(OC)c(OC)c(OC)cc12` [Example 41, 4-[N-(Ethoxycarbonylmethyl)-(3,4-methylenedioxybenzyl)amino]-6,7,8-trimethoxyquinazoline], for which inhibition was half-maximal at 350 nM (IC50).
`COCCN(Cc1ccc2c(c1)OCO2)c1ncnc2c(OC)c(OC)c(OC)cc12` [Example 42, 4-[N-(2-Methoxyethyl)-(3,4-methylenedioxybenzyl)-amino]-6,7,8-trimethoxyquinazoline]: the midpoint of inhibition, the IC50, lay at 190 nM.
Take `COc1ccc2ncnc(NCc3ccc4nc[nH]c4c3)c2c1` [Example 45, 4-(Benzimidazol-5-ylmethyl)amino-6-methoxyquinazoline]: the half-maximal inhibitory concentration (IC50) was determined as 410 nM.
Then `COc1ccc2ncnc(NCc3ccc4c(c3)OCO4)c2c1` [Example 46, 4-(3,4-Methylenedioxybenzyl)amino-6-methoxyquinazoline], with 240 nM; and `CSc1ccc2ncnc(NCc3ccc(Cl)c(Cl)c3)c2c1` [Example 50, 4-(3,4-Dichlorobenzyl)amino-6-methylthioquinazoline], with 32 nM; and `COc1ccc(CNc2ncnc3ccc(SC)cc23)cc1F` [Example 51, 4-(3-Fluoro-4-methoxybenzyl)amino-6-methylthioquinazoline], with 69 nM.
Then `CSc1ccc2ncnc(NCc3ccc4nc[nH]c4c3)c2c1` [Example 52, 4-(Benzimidazol-5-ylmethyl)amino-6-methylthioquinazoline], with 69 nM.
In turn, `COCCN(Cc1ccc2c(c1)OCO2)c1ncnc2ccc(SC)cc12` [Example 53, 4-[N-(2-Methoxyethyl)-(3,4-methylenedioxybenzyl)amino]-6-methylthioquinazoline] yielded an IC50 of 120 nM.
Then `CSc1ccc2ncnc(N(CCO)Cc3ccc4c(c3)OCO4)c2c1` [Example 54, 4-[N-(2-Hydroxyethyl)-(3,4-methylenedioxybenzyl)amino]-6-methylthioquinazoline], with 470 nM; and `O=[N+]([O-])c1cc(CNc2ncnc3ccc(Cl)cc23)ccc1Cl` [Example 55], with 30 nM.
The figure for `Clc1ccc2ncnc(NCc3ccc(Cl)c(Cl)c3)c2c1` [Example 58, 4-(3,4-Dichlorobenzyl)amino-6-chloroquinazoline] is 42 nM; for `COc1ccc(CNc2ncnc3ccc(Cl)cc23)cc1OC` [Example 59, 4-(3,4-Dimethoxybenzyl)amino-6-chloroquinazoline] it is 270 nM; for `Clc1ccc2ncnc(NCc3ccc4nc[nH]c4c3)c2c1` [Example 60, 4-(Benzimidazol-5-ylmethyl)amino-6-chloroquinazoline] it is 180 nM.
Turning to `COC1Cc2cc(CNc3ncnc4ccc(Cl)cc34)ccc2O1` (stereo not shown) [Example 61, 4-(2-Methoxy-2,3-dihydrobenzofuran-5-yl)methylamino6-chloroquinazoline], the concentration for half-maximal inhibition (IC50) was found to be 420 nM.
As for `CCOc1ccc2ncnc(NCc3ccc4c(c3)OCO4)c2c1` [Example 64, 4-(3,4-Methylenedioxybenzyl)amino-6-ethoxyquinazoline], the half-inhibitory concentration (IC50) was found to be 380 nM.
`N#Cc1ccc2ncnc(NCc3ccc4nc[nH]c4c3)c2c1` [Example 67, 4-(Benzimidazol-5-yl)methylamino-6-cyanoquinazoline]: the concentration for half-maximal inhibition (IC50) was 140 nM.
Regarding `CCOC(=O)c1ccc2ncnc(NCc3ccc4c(c3)OCO4)c2c1` [Example 68, 4-(3,4-Methylenedioxybenzyl)amino-6-ethoxycarbonylquinazoline], the IC50 was 620 nM.
In turn, `Cc1ccc2ncnc(NCc3ccc4c(c3)OCO4)c2c1` [Example 69, 4-(3,4-Methylenedioxybenzyl)amino-6-methylquinazoline] showed an IC50 of 190 nM.
`COc1cc(OC)c2ncnc(NCc3ccc4c(c3)OCO4)c2c1` [Example 71, 4-(3,4-Methylenedioxybenzyl)amino-6,8-dimethoxyquinazoline] gave an IC50 of 810 nM.
In the case of `COc1ccc2ncnc(NCc3ccc4c(c3)OCO4)c2c1OC` [Example 72, 4-(4-Methylenedioxybenzyl)amino-5,6-dimethoxyquinazoline], the IC50 is 730 nM.
Molecule `COc1cc2ncnc(NCc3ccc4c(c3)OCO4)c2cc1NC(C)=O` [Example 73, 4-(3,4-Methylenedioxybenzyl)amino-6-acetamido-7-methoxyquinazoline] had a half-inhibitory concentration (IC50) of 940 nM.
As to `COc1cc2ncnc(NCc3ccc4c(c3)OCO4)c2cc1SC` [Example 74, 4-(34-Methylenedioxybenzyl)amino-6-methylthio-7-methoxyquinazoline], half-maximal inhibition (IC50) was put at 350 nM.
For `c1ccc2cc3c(NCc4ccc5c(c4)OCO5)ncnc3cc2c1` [Example 78, 4-(3,4-Methylenedioxybenzyl)aminobenzo[g]quinazoline], the half-inhibitory concentration (IC50) came to 500 nM.
Then `COc1cc2c(NCc3ccc4c(c3)OCO4)nc(C)nc2c(OC)c1OC` [Example 81, 2-Methyl-4-(3,4-methylenedioxybenzyl)amino-6,7,8-trimethoxyquinazoline], with 440 nM; and `COc1ccc2nc(C(C)C)nc(NCc3ccc4c(c3)OCO4)c2c1` [Example 82, 2-Isopropyl-4-(3,4-methylenedioxybenzyl)amino-6-methoxyquinazoline], with 550 nM.
As to `CCCOc1ccccc1-c1nc(NCc2ccc3c(c2)OCO3)c2cc(Cl)ccc2n1` [Example 83, 2-(2-Propoxyphenyl)-4-(3,4-methylenedioxybenzyl)amino-6-chloroquinazoline], half-maximal inhibition (IC50) required 24 nM.
On to `CCCOc1ccccc1-c1nc(NCc2ccc3c(c2)OCO3)c2ccccc2n1` [Example 84, 2-(2-Propoxyphenyl)-4-(3,4-methylenedioxybenzyl)aminoquinazoline], for which the IC50 was 220 nM.
Consider `COc1ccc2nc(OC)nc(NCc3ccc4c(c3)OCO4)c2c1` [Example 89, 2,6-Dimethoxy-4-(3,4-methylenedioxybenzyl)aminoquinazoline], for which half-maximal inhibition (IC50) required 160 nM.
In turn, `COc1ccc2nc(OCc3ccccc3)nc(NCc3ccc4c(c3)OCO4)c2c1` [Example 91, 2-Benzyloxy-4-(4-methylenedioxybenzyl)amino-6-methoxyquinazoline] displayed an IC50 of 36 nM.
`Clc1ccc2nc(Cl)nc(NCc3ccc4c(c3)OCO4)c2c1` [Example 92, 2,6-Dichloro-4-(3,4-methylenedioxybenzyl)aminoquinazoline] yielded a concentration for half-maximal inhibition (IC50) of 94 nM.
Take `N#Cc1ccc2nc(Cl)nc(NCc3ccc4c(c3)OCO4)c2c1` [Example 93, 2-Chloro-4-(3,4-methylenedioxybenzyl)amino-6-cyanoquinazoline]: the IC50 was found to be 32 nM.
The molecule `COc1cc2c(NCc3ccc4c(c3)OCO4)nc(Cl)nc2c(OC)c1OC` [Example 95, 2-Chloro-4-(3,4-methylenedioxybenzyl)amino-6,7,8-trimethoxyquinazoline] gave an IC50 of 200 nM.
`COc1cc2nc(Cl)nc(NCc3ccc4c(c3)OCO4)c2cc1OC` [Example 97] registered an IC50 of 790 nM.
Turning to `COc1ccc2nc(Cl)nc(NCc3ccc4c(c3)OCO4)c2c1` [Example 98, 2-Chloro-4-(3,4-methylenedioxybenzyl)amino-6-methoxyquinazoline], half-maximal inhibition (IC50) required 62 nM.
Molecule `N#Cc1ccc2nc(Cl)nc(NCc3ccc4nc[nH]c4c3)c2c1` [Example 104, 2-Chloro-4-(benzimidazol-5-yl)methylamino-6-cyanoquinazoline] had an IC50 of 10 nM.
For `COc1cc2c(N(CCO)Cc3ccc4c(c3)OCO4)nc(Cl)nc2c(OC)c1OC` [Example 105, 2-Chloro-4-[N-(2-hydroxyethyl)-(3,4-methylenedioxybenzyl)amino]-6,7,8-trimethoxyquinazoline], the IC50 is 180 nM.
